Experimental data reported in ChEMBL document CHEMBL1201862, “PubChem BioAssay data set” (2004).
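Step 1: Grow cells in 96-well plates. Step 2: Expose to compound for 48 hours at 5 concentrations. Step 3: Interpolate endpoints linearly; if unreached, use highest concentration. Here, GI50 denotes the concentration required for 50% inhibition of growth.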 The source made the active and inactive calls. Cut-off read from the data, not from the text of the source: active = GI50 up to about 1.1 µM and inactive = higher.

Experiments:
Test in all cases: inhibition of tumour cell growth, NCI panel, 48 h
M19-MEL = system: M19-MEL
KM-20L2 = system: KM-20L2
DMS-273 = system: DMS-273
HOP-18 = system: HOP-18
LXFL 529 = system: LXFL 529
RXF 631 = system: RXF 631
DLD-1 = system: DLD-1
DMS-114 = system: DMS-114
XF498 = system: XF498

Measured: GI50

CCN(CC)c1ccc(/N=N\c2ccc(-c3nc4ccc[n+](C)c4s3)cc2)cc1
inactive: M19-MEL 3.55 µM | KM-20L2 6.78 µM | DMS-273 3.65 µM | HOP-18 16.7 µM | LXFL 529 3.24 µM

CC#N.O[C@@H]1CCCC[C@H]1O.O[C@@H]1CCCC[C@H]1O.[TeH2]
inactive: RXF 631 22.8 µM | DLD-1 32.2 µM | M19-MEL 21.5 µM | KM-20L2 69.7 µM | DMS-114 44.7 µM | DMS-273 18.1 µM | HOP-18 23.3 µM | LXFL 529 37.7 µM

CC1=C2C(O)C(C(C)C(=O)NCC(C)C)CCC2(C)C=CC1=O (stereo not given)
inactive: DLD-1 > 100 µM | M19-MEL > 100 µM | XF498 > 100 µM | KM-20L2 > 100 µM | DMS-114 > 100 µM | DMS-273 > 100 µM | HOP-18 > 100 µM

O=C1c2ccccc2OCC1/C=N/O (stereo not given)
inactive: DLD-1 > 91.4 µM | M19-MEL 70.1 µM | XF498 > 100 µM | DMS-114 36.4 µM | DMS-273 99.8 µM | HOP-18 > 100 µM

NS(=O)(=O)c1ccc(NC(=O)c2cccc3cc4ccccc4nc23)cc1
inactive: RXF 631 29.2 µM | DLD-1 17.1 µM | M19-MEL 37.2 µM | XF498 49.7 µM | KM-20L2 12.6 µM | DMS-114 97.7 µM | DMS-273 9.44 µM | HOP-18 > 100 µM | LXFL 529 25 µM

Cc1cccc(Cl)c1NC(N)=S
inactive: RXF 631 35.9 µM | DLD-1 57.7 µM | M19-MEL > 100 µM | KM-20L2 50.8 µM | DMS-114 18.5 µM | DMS-273 20.5 µM | HOP-18 11.1 µM | LXFL 529 31.8 µM

CN(C)CCC1(C2=CCCC2)CC/C(=C\c2ccc3c(c2)OCO3)C1=O (stereo not given)
inactive: RXF 631 15.2 µM | DLD-1 17.1 µM | M19-MEL 18.6 µM | KM-20L2 14.2 µM | DMS-114 14.8 µM | HOP-18 13.6 µM | LXFL 529 12.9 µM

CCCCCCCC(=O)OC(COC(=O)Cc1ccccc1)COC(=O)C(C)(C)C (stereo not given)
inactive: RXF 631 > 100 µM | DLD-1 > 100 µM | M19-MEL > 100 µM | KM-20L2 > 100 µM | DMS-114 > 100 µM | DMS-273 > 100 µM | HOP-18 > 100 µM | LXFL 529 95.3 µM

C#CCC[C@@H]1O[C@@]1(C)CC/C=C(\C)CC/C=C/C=O
inactive: M19-MEL 24.2 µM | XF498 24.2 µM | KM-20L2 36.4 µM | DMS-114 14.6 µM | DMS-273 20 µM | LXFL 529 20.1 µM

Cn1c(=O)c2nc3c4ccccc4c(=O)n(C)c3nc2n(C)c1=O
inactive: M19-MEL > 100 µM | KM-20L2 > 100 µM | DMS-114 > 100 µM | LXFL 529 > 100 µM

CN(C)c1ccc(O[Si](Oc2ccc(N(C)C)cc2)(Oc2ccc(N(C)C)cc2)Oc2ccc(N(C)C)cc2)cc1
inactive: DLD-1 > 100 µM | M19-MEL > 100 µM | XF498 44.4 µM | KM-20L2 > 100 µM | DMS-114 46.5 µM | HOP-18 > 100 µM | LXFL 529 50.9 µM

C=C(C)C(=O)OC1C/C(CO)=C\C(O)C/C(C)=C/C2OC(=O)C(=C)C21 (stereo not given)
inactive: RXF 631 18.4 µM | M19-MEL 25.6 µM | XF498 15.2 µM | KM-20L2 30.3 µM | DMS-114 23.7 µM | DMS-273 27.5 µM | HOP-18 31.3 µM | LXFL 529 16.9 µM

O=S(=O)(c1ccccc1)c1nccs1
inactive: DLD-1 > 100 µM | M19-MEL > 100 µM | XF498 > 100 µM | KM-20L2 > 100 µM | DMS-114 > 100 µM | DMS-273 > 100 µM | HOP-18 > 100 µM | LXFL 529 > 100 µM

O=C(NCCO)c1cc2c(cn1)[nH]c1ccccc12
inactive: RXF 631 > 100 µM | DLD-1 24.7 µM | XF498 > 100 µM | KM-20L2 > 100 µM | DMS-114 > 100 µM | DMS-273 > 100 µM | LXFL 529 > 100 µM

COC(=O)c1sc(C(=O)OC)c2c1C[S+]([O-])C2
inactive: RXF 631 > 100 µM | DLD-1 > 100 µM | M19-MEL > 100 µM | XF498 38.7 µM | KM-20L2 > 100 µM | DMS-114 > 100 µM | DMS-273 > 100 µM | HOP-18 > 100 µM | LXFL 529 > 100 µM

Cc1oc2c(C)c3oc(=O)cc(C)c3cc2c1CN1C(=O)C2OCCOCCOCCOCCOCCO[C@H]2C1=O (stereo not given in full)
inactive: RXF 631 26.7 µM | DLD-1 > 100 µM | M19-MEL > 100 µM | KM-20L2 > 100 µM | DMS-114 > 100 µM | DMS-273 > 100 µM | HOP-18 > 100 µM | LXFL 529 > 100 µM

Cn1cc(NC(=O)c2cc(NC(=O)CCCCCCCC(=O)Nc3cc(C(=O)Nc4cc(C(=O)NCCC(=N)N)n(C)c4)n(C)c3)cn2C)cc1C(=O)NCCC(=N)N
inactive: RXF 631 56.9 µM | DLD-1 30.9 µM | M19-MEL 5.43 µM | XF498 29.2 µM | KM-20L2 > 100 µM | DMS-114 4.03 µM | DMS-273 11.2 µM | HOP-18 34 µM | LXFL 529 12.4 µM

CCCCCCCCCCCCCCNCC(OC)OC
inactive: RXF 631 15.2 µM | DLD-1 14.6 µM | M19-MEL 18.1 µM | XF498 16.7 µM | KM-20L2 14.4 µM | DMS-114 14 µM | DMS-273 17.5 µM | HOP-18 13.3 µM | LXFL 529 16.3 µM

Cc1ccc2nc(/C(=C/c3ccc(/C=C(\NC(=O)c4ccccc4)c4nc5ccc(C)cc5[nH]4)c(C)c3)NC(=O)c3ccccc3)[nH]c2c1
inactive: RXF 631 19.2 µM | DLD-1 3.02 µM | M19-MEL 4.36 µM | XF498 3.76 µM | KM-20L2 20.3 µM | DMS-114 7.57 µM | DMS-273 22.6 µM | LXFL 529 1.5 µM

O=c1cccccc1NCCOCCNc1cccccc1=O
inactive: DLD-1 > 100 µM | M19-MEL > 100 µM | KM-20L2 > 100 µM | DMS-114 > 100 µM | DMS-273 > 100 µM | HOP-18 29 µM | LXFL 529 > 100 µM

COc1nc(N)c(C(=O)CCl)c(=O)n1C
inactive: RXF 631 15.3 µM | DLD-1 13.2 µM | XF498 16.4 µM | KM-20L2 18.3 µM | DMS-114 16.8 µM | HOP-18 16.4 µM | LXFL 529 13.6 µM
